From patent US20100040615A1, “Digalactolipidic Antigen Exposed on the Surface of Apicomplex Parasites, and Diagnostic and Therapeutic Use Thereof” (COMMISSARIAT A L'ENERGIE ATOMIQUE, priority 2007, published 2010)

Assay: Immunization of animals with purified galactolipid, sera tested for antibodies
Assay type: in vivo, rabbits and rat
Conditions: five immunizations, Freund's adjuvant, sera taken at D57
Method: Two rabbits and one rat were immunized with purified DGDG ([…]), according to the following protocol: • a first immunization (D0) by multisite subcutaneous injection (total volume of 1 ml) of 0.5 mg of antigen in 0.5 ml of a solution of NaCl (0.9%), emulsified in 0.5 ml of complete Freund's adjuvant, • a second immunization (D10) by subcutaneous (1 ml) and intramuscular (0.5 ml) injection of 0.5 mg of antigen in 0.75 ml of a solution of NaCl (0.9%), emulsified in 0.75 ml of incomplete Freund's adjuvant, • a third immunization (D21) by subcutaneous (1 ml) and intramuscular (0.5 ml) injection of 0.5 mg of antigen in 0.75 ml of a solution of NaCl (0.9%), emulsified in 0.75 ml of incomplete Freund's adjuvant, • a fourth immunization (D36) by intramuscular (0.5 ml) and intravenous (0.5 ml) injection: 0.17 mg of antigen in 0.25 ml of a solution of NaCl (0.9%), emulsified in 0.25 ml of incomplete Freund's adjuvant, injected intramuscularly, and 0.33 mg of antigen in 0.5 ml of a solution of NaCl (0.9%), injected intravenously, and • a fifth immunization (D50) by intramuscular (0.5 ml) and intravenous (0.5 ml) injection: 0.17 mg of antigen in 0.25 ml of a solution of NaCl (0.9%), emulsified in 0.25 ml of incomplete Freund's adjuvant, injected intramuscularly, and 0.33 mg of antigen in 0.5 ml of a solution of NaCl (0.9%), injected intravenously. […]

| Substance | induction of active serum (antibodies against the immunizing lipid) |
| --- | --- |
| monogalactosyldiacylglycerol [MGDG] | did not make it possible to obtain active serum |
| 1,2-diacyl-(α-D-galactopyranosyl-(1→6)-β-D-galactopyranosyl-(1′→3))-sn-glycerol [DGDG] | made it possible to obtain active sera containing antibodies that recognize DGDG |
